Test system: P388 leukemia
Experiment: Survival of mice with P388 leukemia treated with methotrexate-fibrinogen conjugate
Format: in vivo
Conditions: dosage of methotrexate 40 mg/kg
Method: Table of survival of mice with P388 leukemia treated with methotrexate-fibrinogen conjugate. Dosage of methotrexate 40 mg/kg.
S—number of mice with no leukemia detected on the 60th day of the experiment (mice considered cured) L—number of mice which died before the control ILS—ILS increase of life span Conjugates F-MTX were obtained in the reaction of fibrinogen glycation with fructose. Conjugates G-MTX were obtained in the reaction of fibrinogen glycation with glucose. Glycation was carried out according to the high temperature procedure.
Table, of survival of, mice with P388 leukemia treated with methotrexate fibrinogen conjugate. Dosage of methotrexate 40 mg/kg.

With `CN(Cc1cnc2nc(N)nc(N)c2n1)c1ccc(C(=O)N[C@@H](CCC(=O)O)C(=O)O)cc1` [Methotrexat, methotrexate] the “ILS (%) increase of life span” value was 36% and the Mean survival rate (experiment ended on 60th day) was 15.0.

Reference: US8623998B2, “Method of production of polyanionic drug-carrier conjugates” (priority 2008, dated 2014)
